From ChEMBL document CHEMBL3352273, “Synthesis and biological evaluation of novel thieno[2,3-d]pyrimidine-based FLT3 inhibitors as anti-leukemic agents” (Eur J Med Chem, 2014)

Columns and labels:
K562 = assay: cells; conditions: Homo sapiens, K562, 48 h
Description: Growth inhibition of human K562 cells after 48 hrs by XTT assay

cells [1] = conditions: Homo sapiens, HL-60, 48 h
Description: Growth inhibition of human HL60 cells after 48 hrs by XTT assay

[2] = biological target: T1, Receptor-type tyrosine-protein kinase FLT3 (Homo sapiens, UniProt P36888)
T1 sequence (P36888 whole entry): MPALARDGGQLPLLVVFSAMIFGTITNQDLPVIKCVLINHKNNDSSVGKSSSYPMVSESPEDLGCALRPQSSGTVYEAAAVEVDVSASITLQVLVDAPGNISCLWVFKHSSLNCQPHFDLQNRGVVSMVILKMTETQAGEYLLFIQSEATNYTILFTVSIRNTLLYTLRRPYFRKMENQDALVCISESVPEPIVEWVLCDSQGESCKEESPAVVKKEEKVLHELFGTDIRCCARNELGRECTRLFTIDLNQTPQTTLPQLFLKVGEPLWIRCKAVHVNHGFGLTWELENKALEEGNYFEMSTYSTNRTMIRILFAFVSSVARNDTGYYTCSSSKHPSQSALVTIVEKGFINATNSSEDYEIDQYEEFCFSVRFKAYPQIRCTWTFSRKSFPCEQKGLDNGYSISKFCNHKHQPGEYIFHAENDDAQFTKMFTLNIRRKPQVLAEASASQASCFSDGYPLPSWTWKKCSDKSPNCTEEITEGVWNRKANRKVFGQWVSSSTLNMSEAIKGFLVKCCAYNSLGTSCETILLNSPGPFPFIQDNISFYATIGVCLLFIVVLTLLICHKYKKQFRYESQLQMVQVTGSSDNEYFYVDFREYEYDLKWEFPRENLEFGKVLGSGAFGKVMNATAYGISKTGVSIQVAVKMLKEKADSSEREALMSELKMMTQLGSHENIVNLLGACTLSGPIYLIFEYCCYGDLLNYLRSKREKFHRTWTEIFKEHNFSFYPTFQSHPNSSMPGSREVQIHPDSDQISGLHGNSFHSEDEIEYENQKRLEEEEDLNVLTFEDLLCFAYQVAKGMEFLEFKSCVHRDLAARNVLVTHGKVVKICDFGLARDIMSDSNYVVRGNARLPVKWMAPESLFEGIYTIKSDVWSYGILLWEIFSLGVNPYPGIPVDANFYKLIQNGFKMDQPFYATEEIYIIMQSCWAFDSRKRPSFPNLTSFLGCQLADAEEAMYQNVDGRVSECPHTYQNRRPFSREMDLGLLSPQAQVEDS
Description: Inhibition of human FLT3 using 10 uM ATP

cells [3] = conditions: Homo sapiens, MV4-11, 48 h
Description: Growth inhibition of human MV411 cells after 48 hrs by XTT assay

cells [4] = conditions: Homo sapiens, THP-1, 48 h
Description: Growth inhibition of human THP1 cells after 48 hrs by XTT assay

[5] = Retention time of the compound by HPLC method; format: physicochemical

| SMILES | GI50 (K562) | GI50 (cells [1]) | IC50 ([2]; read-out: IC50) | GI50 (cells [3]) | GI50 (cells [4]) | Retention_time [5] | IC50 [2] |
| --- | --- | --- | --- | --- | --- | --- | --- |
| CC1=CC(=O)N(Nc2nc(-c3cccs3)nc3scc(-c4cccs4)c23)C1=O | 5.55 µM | 0.746 µM | 0.069 µM | 0.32 µM | 2.67 µM | 8.11 min | – |
| CC1=CC(=O)N(Nc2nc(-c3ccccc3)nc3scc(-c4cccs4)c23)C1=O | 6.3 µM | 0.862 µM | 1.6 µM | 0.836 µM | 3.73 µM | 6.15 min | – |
| CC1=CC(=O)N(Nc2nc(-c3cccs3)nc3scc(-c4ccccc4)c23)C1=O | 0.074 µM | 0.758 µM | – | 0.233 µM | 0.155 µM | 8.39 min | – |
| CC1=CC(=O)N(Nc2nc(-c3ccc(N(C)C)cc3)nc3scc(-c4ccccc4)c23)C1=O | 1.74 µM | 2.19 µM | – | 0.755 µM | 1.63 µM | 10.86 min | Not Active |
| CC1=CC(=O)N(Nc2nc(-c3ccc(N)cc3)nc3scc(-c4ccccc4)c23)C1=O | 8.16 µM | 3.71 µM | – | 2.1 µM | 4.11 µM | 5.16 min | – |
| COc1sc2nc(-c3cccs3)nc(NN3C(=O)C=C(C)C3=O)c2c1C | 1.46 µM | 0.24 µM | – | 0.1 µM | 0.906 µM | 5.61 min | – |
| COC(=O)c1sc2nc(-c3cccs3)nc(NN3C(=O)C=C(C)C3=O)c2c1C | 0.03 µM | 0.136 µM | – | 0.086 µM | 0.172 µM | 6.04 min | – |
| COC(=O)Cc1sc2nc(-c3cccs3)nc(NN3C(=O)C=C(C)C3=O)c2c1C | 0.483 µM | 0.656 µM | – | 0.091 µM | 2.9 µM | – | – |
| CC1=CC(=O)N(Nc2nc(-c3cccs3)nc3sc(CO)c(C)c23)C1=O | 3.84 µM | 0.712 µM | – | 0.092 µM | 2.6 µM | 10.19 min | – |
| COCc1sc2nc(-c3cccs3)nc(NN3C(=O)C=C(C)C3=O)c2c1C | 1.26 µM | 0.266 µM | – | 0.115 µM | 1.78 µM | 10.19 min | – |
| CC1=CC(=O)N(Nc2nc(-c3cccs3)nc3sc(C(N)=O)c(C)c23)C1=O | 2.78 µM | 7.8 µM | – | 0.193 µM | 2.69 µM | 5.72 min | – |
| COc1ccc(-c2sc3nc(-c4cccs4)nc(NN4C(=O)C=C(C)C4=O)c3c2C)cc1 | 0.154 µM | 0.624 µM | – | 0.135 µM | 0.902 µM | 10.06 min | – |
| CC1=CC(=O)N(Nc2nc(-c3cccs3)nc3sc(-c4ccc(O)cc4)c(C)c23)C1=O | 0.145 µM | 0.221 µM | – | 0.131 µM | 0.6 µM | 4.93 min | – |
| CC1=CC(=O)N(Nc2nc(-c3cccs3)nc3sc(-c4cccc(O)c4)c(C)c23)C1=O | 0.003 µM | 0.383 µM | – | 0.123 µM | 0.107 µM | – | – |
| CC1=CC(=O)N(Nc2nc(-c3cccs3)nc3sc(-c4ccc([N+](=O)[O-])cc4)c(C)c23)C1=O | 1.88 µM | 0.418 µM | – | 0.112 µM | 0.846 µM | 9.44 min | – |
| CC1=CC(=O)N(Nc2nc(-c3cccs3)nc3sc(Cc4ccc(O)cc4)c(C)c23)C1=O | 0.88 µM | 0.213 µM | – | 0.103 µM | 0.948 µM | – | – |
| NNc1nc(-c2cccs2)nc2scc(-c3cccs3)c12 | > 10 µM | > 10 µM | – | > 10 µM | > 10 µM | – | – |
| CC1=CC(=O)N(Nc2nc(-c3ccc(C)s3)nc3scc(-c4cccs4)c23)C1=O | 1.92 µM | 0.403 µM | – | 0.775 µM | 2.81 µM | 6.17 min | – |
| CC1=CC(=O)N(Nc2nc(Cc3cccs3)nc3scc(-c4cccs4)c23)C1=O | > 10 µM | 0.725 µM | – | 2.01 µM | 6.26 µM | – | Not Active |
| CC1=CC(=O)N(Nc2nc(Cc3ccccc3)nc3scc(-c4cccs4)c23)C1=O | 3.52 µM | 1.52 µM | – | 3.83 µM | 6.66 µM | 7.09 min | Not Active |
| COc1ccc(-c2nc(NN3C(=O)C=C(C)C3=O)c3c(-c4ccccc4)csc3n2)cc1 | 0.703 µM | 1.31 µM | – | 0.407 µM | 2.21 µM | 9.76 min | Not Active |
| Cl.c1csc(-c2nc(N3CCNCC3)c3c(-c4cccs4)csc3n2)c1 | > 10 µM | > 10 µM | – | > 10 µM | > 10 µM | 4.39 min | – |
| COc1cc2c(N3CCN(C(=O)Nc4ccc(OC(C)C)cc4)CC3)ncnc2cc1OCCCN1CCCCC1 [TANDUTINIB] | > 10 µM | > 10 µM | – | 8.76 µM | > 10 µM | – | – |
